Data: publication PMC12040169 (PLOS Biology, 2025)

Test: in vitro
Details: human, hela cells, % viability

Point of comparison: `CCNC(=O)C1(Cc2ccc(-c3cccs3)cc2)CCN(C(=O)Cc2ccccc2)CC1` [CBK285795], viability at 28.5 h, 10 µM 115%. Against it:
- COc1cccc(CC(=O)N2CCC(Cc3cccc(-c4cccs4)c3)(C(N)=O)CC2)c1 [CBK285738] — lower, 96.4%
- NC(=O)C1(Cc2cccc(-c3cccs3)c2)CCN(C(=O)COc2ccccc2)CC1 [CBK285741] — lower, 103%
- CNC(=O)C1(Cc2cccc(-c3cccs3)c2)CCN(C(=O)Cc2ccccc2)CC1 [CBK285745] — lower, 93.3%
- CNC(=O)C1(Cc2ccccc2-c2cccs2)CCN(C(=O)Cc2ccccc2)CC1 [CBK285746] — lower, 90.8%
- COc1ccccc1-c1ccc(NC(=O)C2(c3cccc(F)c3)CCOCC2)cc1 [CBK285747] — lower, 103%
- COc1ccc(C(NC(=O)c2ccc(C(C)N3CCOCC3)o2)c2ccccc2)cc1 (stereo not drawn) [CBK285748] — lower, 112%
- CC(C)NC(=O)C1(Cc2ccc(-c3ccccc3)cc2)CCN(C(=O)C2CCC2)CC1 [CBK285750] — lower, 102%
- CC(C)NC(=O)C1(Cc2ccc(-c3ccccc3)cc2)CCN(C(=O)C2CCCC2)CC1 [CBK285751] — lower, 101%
- Cc1cccc(CC(=O)N2CCC(Cc3cccc(-c4cccs4)c3)(C(N)=O)CC2)c1 [CBK285752] — lower, 107%
- O=C(Cn1cc(C(=O)NCc2ccccc2)ccc1=O)NC1(c2ccccc2)CCCC1 [CBK285753] — lower, 95.7%
- Cc1cccc(-c2ccc(CC3(C(=O)NC(C)C)CCN(C(=O)C4CC4)CC3)cc2)c1 [CBK285757] — lower, 93.3%
- Cc1cccc(-c2ccc(CC3(C(=O)NC(C)C)CCN(C(=O)C(C)(C)C)CC3)cc2)c1 [CBK285758] — lower, 96.2%
- CNC(=O)C1(Cc2ccc(-c3ccccc3)cc2)CCN(C(=O)CC2CCCCC2)CC1 [CBK285763] — lower, 112%
- CNC(=O)C1(Cc2ccc(-c3ccccc3)cc2)CCN(C(=O)Cc2ccccc2)CC1 [CBK285764] — lower, 103%
- CNC(=O)C1(Cc2ccc(-c3ccccc3)cc2)CCN(C(=O)CCc2ccccc2)CC1 [CBK285765] — lower, 91.8%
- CNC(=O)C1(Cc2ccc(-c3ccccc3)cc2)CCN(C(=O)COc2ccccc2)CC1 [CBK285766] — lower, 92.7%
- CNC(=O)C1(Cc2ccc(-c3ccccc3)cc2)CCN(C(=O)Cc2ccccc2F)CC1 [CBK285768] — lower, 94.8%
- COc1cccc(C(=O)N2CCC(Cc3ccc(-c4ccccc4)cc3)(C(N)=O)CC2)c1 [CBK285770] — lower, 103%
- NC(=O)C1(Cc2ccc(-c3ccccc3)cc2)CCN(C(=O)Cc2ccccc2)CC1 [CBK285771] — the same, 115%
- Cc1cccc(-c2ccc(CC3(C(N)=O)CCN(C(=O)c4ccccc4)CC3)cc2)c1 [CBK285778] — lower, 93.9%
- Cc1cccc(-c2ccc(CC3(C(N)=O)CCN(C(=O)Cc4ccccc4)CC3)cc2)c1 [CBK285780] — lower, 101%
- NC(=O)C1(Cc2cccc(-c3cccs3)c2)CCN(C(=O)CCc2ccccc2)CC1 [CBK285782] — lower, 91.3%
- CNC(=O)C1(Cc2ccc(-c3ccccc3)cc2)CCN(C(=O)c2cccc(OC)c2)CC1 [CBK285788] — lower, 105%
- Nc1ncc(-c2ccc(C(F)(F)F)cc2)c(C2CCCN(C(=O)c3ccccc3)C2)n1 (stereo not drawn) [CBK285790] — lower, 89.2%
- Nc1ncc(-c2ccc(C(F)(F)F)cc2)c(C2CCCN(C(=O)C3CCCCC3)C2)n1 (stereo not drawn) [CBK285791] — lower, 98.9%
- Cc1cccc(CC(=O)N2CCC(Cc3ccc(-c4cccc(C)c4)cc3)(C(N)=O)CC2)c1 [CBK285798] — lower, 104%
- O=C(Cc1c[nH]c2ccccc12)N1CCCC1c1cccc(Cc2ccccc2F)n1 (stereo not drawn) [CBK285799] — lower, 89.7%
- CCOc1ccc(C2CCCN2S(=O)(=O)c2c[nH]c(=O)[nH]c2=O)cc1 (stereo not drawn) [CBK285806] — lower, 92.6%
- CCOc1ccccc1-c1ccccc1NC(=O)c1ccc2c(c1)ncn2C1CC1 [CBK285808] — lower, 84.3%
- CCOCc1ccc(C(=O)N2CCNC(=O)C2Cc2ccc(-c3cccs3)cc2)cc1 (stereo not drawn) [CBK285811] — lower, 97.3%
- CN1CCN(C(=O)c2n[nH]c3c2CCCC3)C(Cc2ccc(-c3cccs3)cc2)C1=O (stereo not drawn) [CBK285812] — lower, 101%
- Cc1ccc2[nH]c(Cc3ccc(NC(=O)c4cccc5c(=O)cc(C)[nH]c45)cc3)nc2c1 [CBK285814] — lower, 99.5%
- Cc1ccc2[nH]c(Cc3ccc(NC(=O)c4cc(=O)n(C)c5ccccc45)cc3)nc2c1 [CBK285815] — lower, 98.5%
- Cn1c(=O)c(C(=O)Nc2ccc(OCc3ccccc3F)cc2)nc2ccccc21 [CBK285820] — lower, 103%
- COc1ccc(-c2ccc(OC)cc2C(=O)Nc2ccc3c(c2)OCC(=O)N3)cc1 [CBK285821] — lower, 101%
- Cc1ccc2[nH]c(Cc3ccc(NC(=O)CCC4C(=O)Nc5ccccc54)cc3)nc2c1 (stereo not drawn) [CBK285824] — lower, 91%
- Cc1c(C(=O)Nc2cccc(-c3nc4ccccc4s3)c2)sc2nc[nH]c(=O)c12 [CBK285825] — lower, 80.5%
- COc1cccc(C(=O)N2CCN(C)C(=O)C2Cc2ccccc2-c2ccccc2)c1OC (stereo not drawn) [CBK285828] — lower, 109%
- COc1ccc(OC)c(C(=O)N2CCNC(=O)C2Cc2ccccc2-c2ccc(F)cc2)c1 (stereo not drawn) [CBK285829] — lower, 105%
- Cn1nc(C(C)(C)C)cc1C(=O)N1CCNC(=O)C1Cc1ccccc1-c1ccc(F)cc1 (stereo not drawn) [CBK285830] — lower, 101%
- O=C1NCCN(C(=O)COc2ccc(F)cc2F)C1Cc1ccccc1-c1cccnc1 (stereo not drawn) [CBK285832] — lower, 95.6%
- Cc1ccc2[nH]c(-c3cccc(NC(=O)c4ccc(-n5cnnc5)cc4)c3)nc2c1 [CBK285839] — lower, 94.1%
- COc1c(C)cccc1C(=O)N1CCCCC1c1ncc(C(=O)Nc2ccccc2)c(C)n1 (stereo not drawn) [CBK285841] — lower, 89.9%
- CCN(Cc1ncc[nH]1)[C@H]1CCO[C@@H](c2ccccc2-c2ccc(OC)cc2)C1 [CBK285842] — lower, 104%
- CCOc1ccccc1-c1ccccc1NC(=O)c1ccc(-n2nc(C)cc2C)cc1 [CBK285845] — lower, 54.1%
- COC(C)(C)C(=O)N1CCCC(c2ccc(Cc3ccc(Cl)cc3)cn2)C1 (stereo not drawn) [CBK285846] — lower, 98.6%
- COc1ccc(CCCC(=O)N2CCC(c3c(C(N)=O)sc4ccccc34)C2)cc1C (stereo not drawn) [CBK285848] — lower, 94%
- COc1cccc(-c2ccc(NC(=O)c3ccc(Cn4cnnn4)cc3)cc2)c1 [CBK285850] — lower, 93.4%
- CCN(Cc1nccn1CC)[C@H]1CCO[C@@H](c2ccccc2-c2ccc(OC)cc2)C1 [CBK285852] — lower, 101%
- CCN(Cc1cnn(C)c1)[C@H]1CCO[C@@H](c2ccccc2-c2ccc(OC)cc2)C1 [CBK285854] — lower, 98%
- CCN(C(=O)c1ccc(C)nc1)[C@H]1CCO[C@@H](c2cccc(-c3cc(F)cc(F)c3)c2)C1 [CBK285856] — lower, 91%
- Cc1ccc(Oc2ccc(CNC(=O)c3sc4nc[nH]c(=O)c4c3C)cc2)cc1 [CBK285857] — lower, 91.3%
- COc1ccc(CC(=O)N2CCCCC2c2cc(-c3ccc(F)cc3)cc(C)n2)cc1OC (stereo not drawn) [CBK285858] — lower, 98.8%
- CC(C)NC(=O)c1cc([C@H]2CC[C@H](CNC(=O)Cn3cccn3)CC2)nc2ccccc12 [CBK285859] — lower, 112%
- Cc1n[nH]cc1C(=O)NC[C@H]1CC[C@H](c2cc(C(=O)NC(C)C)c3ccccc3n2)CC1 [CBK285862] — lower, 96.3%
- COc1ccc(CC(C(=O)Nc2ccc3nc[nH]c(=O)c3c2)c2ccccc2)cc1 (stereo not drawn) [CBK285863] — lower, 94.3%
- COc1ccc(-c2ccccc2NC(=O)c2ccc(Cn3cnnn3)cc2)cc1 [CBK285866] — lower, 96.4%
- CC(C)CNC(=O)c1cc([C@H]2CC[C@H](CNC(=O)c3cnn(C)c3)CC2)nc2ccccc12 [CBK285867] — lower, 114%
- CNC(=O)c1sc2ccccc2c1C1CN(Cc2cn(C)c3ccc(F)cc23)CCO1 (stereo not drawn) [CBK285868] — lower, 87.4%
- CC(C)NC(=O)c1sc2ccccc2c1C1CN(C(=O)CC2CCCCC2)CCO1 (stereo not drawn) [CBK285869] — lower, 91.5%
- Cc1c(C(=O)N2CCC(c3c(C(=O)NC(C)C)sc4ccccc34)C2)[nH]c2ccccc12 (stereo not drawn) [CBK285872] — lower, 84.8%
- CC(C)NC(=O)c1sc2ccccc2c1C1CCN(C(=O)CCc2ccccc2)C1 (stereo not drawn) [CBK285874] — lower, 99.2%
- CNC(=O)c1sc2ccccc2c1C1CCN(C(=O)CCN(C)c2ccc(F)cc2)C1 (stereo not drawn) [CBK285878] — lower, 96.5%
- CNC(=O)c1sc2ccccc2c1C1CCN(Cc2ccc(Oc3ncccn3)cc2)C1 (stereo not drawn) [CBK285881] — lower, 85.9%
- CNC(=O)c1sc2ccccc2c1C1CCN(Cc2cnn(-c3ccc(F)cc3)c2)C1 (stereo not drawn) [CBK285882] — lower, 84.1%
- Cc1ccc(CC(=O)N2CCC(c3ncc(C(=O)Nc4ccc(F)cc4)c(C)n3)CC2)cc1 [CBK285884] — lower, 111%
- Cc1cccc(CC(=O)N2CCC(c3ncc(C(=O)Nc4ccc(F)cc4)c(C)n3)CC2)c1 [CBK285885] — lower, 101%
- O=c1[nH]cc(S(=O)(=O)N2CCN(Cc3ccccc3Cl)CC2)c(=O)[nH]1 [CBK285889] — lower, 97.1%
- Cc1nn(C(C)C)c(C)c1CN1CCC(c2c(C(=O)NC(C)C)sc3ccccc23)C1 (stereo not drawn) [CBK285890] — lower, 95.5%
- CC(=O)NCc1ccc(-c2ccc(C(=O)NC3(c4ccccc4)CCCC3)c(C)n2)cc1 [CBK285891] — lower, 96%
- CC(=O)N1CCC(c2c(C(=O)Nc3cccc(CN4CCCC4)c3)sc3ccccc23)C1 (stereo not drawn) [CBK285892] — lower, 110%
- CC(C)NC(=O)c1cc(C2CN(Cc3ccc4ncccc4c3)CCO2)nc2ccccc12 (stereo not drawn) [CBK285895] — lower, 92.9%
- Cc1ncc(CN2CCOC(c3cc(C(=O)NCC(C)C)c4ccccc4n3)C2)s1 (stereo not drawn) [CBK285897] — lower, 89.9%
- CC(C)CC(=O)N1CCC(Cc2ccccc2-c2cccs2)(C(=O)NC(C)C)CC1 [CBK285898] — lower, 87.3%
- CC(C)c1csc(NC(=O)CC2CCN(S(=O)(=O)c3cccc(F)c3)CC2)n1 [CBK285902] — lower, 83.4%

Same assay, conditions: human, hela cells, % viability, bulk resorufin, single well

Point of comparison: `Cc1cc2cc(NC(=O)CCC3C(=O)NC(=O)NC3=O)cc(Cl)c2o1` [CBK285826], viability at 28.5 h, 10 µM 93%. Against it:
- CC1CCN(c2ccc(C(C)NC(=O)CCC3C(=O)NC(=O)NC3=O)cc2)CC1 (stereo not drawn) [CBK285849] — higher, 96.9%
